{"source": "patent US20250339391A1", "about": "“METHODS FOR EFFECTIVE MANAGEMENT OF PAIN” (South Rampart Pharma, Inc., priority 2024, published 2025)", "key": {"Beagle dogs": {"tested_on": "Beagle dogs", "assay": "7-day repeat-dose oral toxicity study in Beagle dogs, Phase II (non-GLP)", "assay_type": "in vivo, dog", "method": "7) A Dose-Range-Finding and 7-day Repeat-Dose Oral Toxicity Study of SRP-001 in Beagle dogs (Non-GLP) In Phase II of this study, 0, 30, 100, or 300 mg/kg/d of SRP-001 was administered once daily for seven consecutive days to 1 Beagle dog/sex/dose (Calvert Labs/Altasciences, Scott Township, PA USA). Mortality/morbidity was observed twice daily and once prior to scheduled sacrifice. Clinical observations were evaluated prior to each dose administration and at approximately 1-3 h post-dose and once prior to scheduled sacrifice on day 8. Body weights were recorded on days 1 and 7, and a fasted body weight was recorded prior to scheduled sacrifice on day 8. Food consumption was recorded daily. Blood for evaluation of hematology, coagulation, and clinical chemistry parameters and urine for urinalysis was collected from all animals prior to treatment initiation and from all Phase II animals prior to scheduled sacrifice on day 8. Blood for toxicokinetic evaluation was collected at selected time points on days 1 and 7. Selected tissues were harvested and weighed at necropsy. No microscopic evaluations were performed. […] The clinical observations corroborated with findings of red discoloration in the duodenum of the control group female, the jejunum of the low-dose male, and the colon of both high-dose dogs."}, "[1]": {"assay": "Jet milling and nano-milling: particle size and solubility", "assay_type": "physicochemical", "method": "In certain instances, a crystalline compound of Formula I is jet milled. Thereafter, the milled compound of Formula I is dispersed in a solution comprising 1% hydroxypropyl cellulose (1% HPC) and sterile water for injection and subjected to wet milling. The target particle size is approximately D90 0.15 μm. The disclosure provides using nanomilling and jet-milling techniques, to prepare an oral nanoparticle suspension containing 100 mg/mL SRP-001 in preserved aqueous 1% HPC. An oral nanoparticle suspension containing 100 mg/mL SRP-001 in aqueous 1% HPC preserved with 0.1% sodium benzoate was used.\nThe drug therapeutic candidate is manufactured in a two-step process (Latitude Pharmaceuticals, Inc., San Diego, CA USA). First, SRP-001 is jet milled. Second, the milled API is dispersed in a solution comprising 1% hydroxypropyl cellulose (1% HPC) and sterile water for injection and subjected to wet milling. The target particle size is approximately D90 0.15 μm. […] An oral nanoparticle suspension containing 100 mg/mL SRP-001 in aqueous 1% HPC preserved with 0.1% sodium benzoate was manufactured for use in nonclinical studies as Lot LPI2021028 and stored at 5° C.±3° C. […] The same formulation as above was manufactured under cGMP for use in clinical studies as Lot LPI2021031 and stored at 5° C.±3° C. […] This lot has been placed on stability at 5° C., 25° C./60% RH, and 40° C./75% RH. Finally, an appearance-matched placebo consisting of 2% microcrystalline cellulose in aqueous 1% HPC preserved with 0.1% sodium benzoate and 0.05% EDTA disodium dihydrate was manufactured under cGMP for use in clinical studies. The above oral suspensions were manufactured by Latitude Pharmaceuticals Inc. (San Diego, CA, USA)."}, "Sprague-Dawley rats [2]": {"tested_on": "Sprague-Dawley rats", "assay": "CFA inflammatory pain / von Frey with electronic detection (eVF)", "assay_type": "in vivo, rat", "conditions": "behavioral assays"}, "Sprague-Dawley rats [3]": {"tested_on": "Sprague-Dawley rats", "assay": "28-day oral toxicity study in Sprague-Dawley rats with 14-day recovery (GLP)", "assay_type": "in vivo", "from_the_text": "5) A 28-day Oral Toxicity Study of SRP-001 in Sprague-Dawley Rats with 14-day Recovery (GLP study) We next set out to determine the toxicity and toxicokinetics of SRP-001 when administered via oral gavage once daily to Sprague-Dawley Rats for 28 d (Calvert Labs/Altasciences, Scott Township, PA USA). The study also assessed the reversibility of any toxicity observed with a 14-d recovery period. One hundred thirty-six experimentally naïve Sprague-Dawley rats (68 males and 68 females), 8 weeks old and weighing 167-295 g for males and females at the outset of the study, were assigned to toxicology treatment groups (Groups 1-4) or toxicokinetic groups (Groups 5-7). For toxicology groups, 10 animals/sex/dose were administered 0, 300, 900, or 1500 mg/kg/d SRP-001. An additional 5 animals/sex/dose in Groups 1 and 4 were targeted for a 14-d recovery period and euthanized on day 43. For toxicokinetic groups, 6 animals/sex/dose were administered 300, 900, or 1500 mg/kg/d SRP-001. Mortality/morbidity was performed twice daily and once prior to scheduled sacrifice. Animals in Groups 1-4 were observed prior to each dose administration and 1-3 h post-dose. Animals in Groups 1-4 were also observed once daily on non-dosing days and once prior to scheduled sacrifice. Body weights were recorded prior to randomization/selection, prior to dose administration on day 1, and weekly thereafter. Food consumption was determined weekly for animals in Groups 1-4. Ophthalmology examinations were performed before treatment initiation and during the last week of dosing for animals in Groups 1-4. The functional observational battery was assessed for 5 animals/sex/group in Groups 1-4 once prior to dosing and at 1-2 h following dose administration on day 1. Blood for evaluation of hematology, coagulation, and clinical chemistry and urine for urinalysis was collected from animals in Groups 1-4 on day 29 or day 43. Blood for toxicokinetic evaluation was collected from animals in Groups 5-7 at selected timepoints on days 1 and 28. All surviving animals in Groups 1-4 were sacrificed on day 29 or day 43. Selected tissues were harvested at necropsy, selected organs weighed, and selected tissues evaluated microscopically."}}}
{"smiles": "CCN(CC)C(=O)c1ccccc1S(=O)(=O)NCC(=O)Nc1ccc(O)cc1", "note": "[SRP-001, N,N-diethyl-2-[[2-(4-hydroxyanilino)-2-oxo-ethyl]sulfamoyl]benzamide]", "values": [{"measurement": "clinical signs", "setting": "Beagle dogs; 30, 100, 300 mg/kg/d", "result": "loose or soft feces and emesis"}, {"measurement": "tolerated dose", "setting": "Beagle dogs; both, Beagle, dog, in vivo, 7 d", "result": 300, "unit": "mg/kg"}, {"measurement": "AUC and Cmax levels", "setting": "Beagle dogs; dog, in vivo", "result": "increased in a dose-dependent manner, with day 1 levels higher than those from day 7"}, {"measurement": "solubility", "setting": "[1]; after jet milling and nano-milling", "result": "increase the solubility"}, {"measurement": "particle size", "setting": "[1]; after jet milling and nano-milling for 17 h (FIG. 25A)", "result": 0.1666, "unit": "μm"}, {"measurement": "particle size", "setting": "[1]; before milling (FIG. 25B)", "result": 879.33, "unit": "μm"}, {"measurement": "locomotor activity or motor incoordination", "setting": "Sprague-Dawley rats [2]", "result": "no overt alterations"}, {"measurement": "doses with minimal to mild centrilobular hepatocellular hypertrophy", "setting": "Sprague-Dawley rats [3]; both, Sprague-Dawley, rat, in vivo, 28 d", "result": "≥ 300", "unit": "mg/kg/day"}, {"measurement": "doses without treatment-related adverse effects", "setting": "Sprague-Dawley rats [3]; both, Sprague-Dawley, rat, in vivo, po, 28 d", "result": "up to 1500 mg/kg/day"}, {"measurement": "no-adverse effect level (NOAEL)", "setting": "Sprague-Dawley rats [3]; once daily for 28 d", "result": 1500, "unit": "mg/kg"}, {"measurement": "hematology and serum chemistry changes", "setting": "Sprague-Dawley rats [3]; rat, in vivo", "result": "increases in globulin, albumin, and total protein and decreases in aspartate aminotransferase, alkaline phosphatase, and mean corpuscular hemoglobin concentration"}]}
